Test results from PubChem BioAssay AID248 (DTP/NCI, 2004).
Several values for one entry are separate records, joined by “and”; a condition that tells them apart may be missing. Equal values may be shown once. Inconclusive results and toxic doses are left out.

Test system: L1210 leukemia ip in BDF1 mice, survival T/C
Assay: NCI In Vivo Anticancer Drug Screen. Data for tumor model L1210 Leukemia (intraperitoneal) in B6D2F1 (BDF1) mice
Details: endpoint: mean survival time, higher = longer survival
How it was run: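 Each compound was tested against a transplantable tumor grown in mice. The endpoint was survival, with treated animals benchmarked against vehicle controls as a simple ratio.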

[1] = dose: 100.0 mg/kg/injection, schedule: Q01DX001 (ip), vehicle: saline
[2] = dose: 200.0 mg/kg/injection, schedule: Q01DX001 (ip), vehicle: saline
[3] = dose: 400.0 mg/kg/injection, schedule: Q01DX001 (ip), vehicle: saline
[4] = dose: 100.0 mg/kg/injection, schedule: Q04DX002 (ip), vehicle: saline with Tween-80
[5] = dose: 200.0 mg/kg/injection, schedule: Q04DX002 (ip), vehicle: saline with Tween-80
[6] = dose: 400.0 mg/kg/injection, schedule: Q04DX002 (ip), vehicle: saline with Tween-80
[7] = dose: 100.0 mg/kg/injection, schedule: Q04DX003 (ip), vehicle: Klucel (hydroxypropylcellulose) (HPC)
[8] = dose: 200.0 mg/kg/injection, schedule: Q04DX003 (ip), vehicle: Klucel (hydroxypropylcellulose) (HPC)
[9] = dose: 400.0 mg/kg/injection, schedule: Q04DX003 (ip), vehicle: Klucel (hydroxypropylcellulose) (HPC)
[10] = dose: 100.0 mg/kg/injection, schedule: Q01DX001 (ip), vehicle: other
[11] = dose: 200.0 mg/kg/injection, schedule: Q01DX001 (ip), vehicle: other
[12] = dose: 400.0 mg/kg/injection, schedule: Q01DX001 (ip), vehicle: other

## CC(=O)OCC1OC(n2cnc3c(Cl)nc(Cl)nc32)CC1OC(C)=O (centres undefined)
[1]
  T/C: 101 % of control
[2]
  T/C: 101 % of control
[3]
  T/C: 101 % of control

## O=C(Cc1cccc2ccccc12)OCCOCCCl
[4]
  T/C: 101 % of control
[5]
  T/C: 104 % of control
[6]
  T/C: 117 % of control

## O=C(C1C2CCC(CC2)C1C(=O)N1CCCCC1)N1CCCCC1 (centres undefined)
dose: 100.0 mg/kg/injection, schedule: Q04DX003 (ip), vehicle: saline
  T/C: 108 % of control
dose: 200.0 mg/kg/injection, schedule: Q04DX003 (ip), vehicle: saline
  T/C: 100 % of control
dose: 400.0 mg/kg/injection, schedule: Q04DX003 (ip), vehicle: saline
  T/C: 100 % of control

## c1ccc2cc3c(cc2c1)oc1cc2ccccc2cc13
[7]
  T/C: 120 % of control
[8]
  T/C: 101 % of control
[9]
  T/C: 107 % of control

## C/C(=C/C=C(c1ccccc1)c1ccccc1)C1CCC2C3CCC4CC5CCC4(C)C3(O5)C(=O)CC12C (centres undefined)
dose: 100.0 mg/kg/injection, schedule: Q04DX003 (sc), vehicle: steriod suspending solution
  T/C: 96 % of control
dose: 200.0 mg/kg/injection, schedule: Q04DX003 (sc), vehicle: steriod suspending solution
  T/C: 93 % of control
dose: 400.0 mg/kg/injection, schedule: Q04DX003 (sc), vehicle: steriod suspending solution
  T/C: 93 % of control

## O=C1C(Cl)=C(c2ccccc2)C(=O)C(Cl)=C1c1ccccc1
[10]
  T/C: 93 % of control
[11]
  T/C: 88 % of control

## O=C(O)C1C(=O)OC2CCCCC21 (centres undefined)
dose: 50.0 mg/kg/injection, schedule: Q01DX009 (ip), vehicle: saline with Tween-80
  T/C: 88 % of control
dose: 100.0 mg/kg/injection, schedule: Q01DX009 (ip), vehicle: saline with Tween-80
  T/C: 88 % of control
dose: 200.0 mg/kg/injection, schedule: Q01DX009 (ip), vehicle: saline with Tween-80
  T/C: 95 % of control

## Cc1cnc(SCc2ccc(Cl)cc2)[nH]c1=S
dose: 25.0 mg/kg/injection, schedule: Q01DX Z (ip), vehicle: methylcellulose (MC)
  T/C: 87 % of control
dose: 50.0 mg/kg/injection, schedule: Q01DX Z (ip), vehicle: methylcellulose (MC)
  T/C: 89 % of control

## O=C(OCc1ccccc1)C1CCCN1Cc1ccc2c(c1)OCO2 (centres undefined)
[1]
  T/C: 93 % of control
[3]
  T/C: 96 % of control

## O=[N+]([O-])c1ccc(O)c(C2CCCCC2)c1
dose: 100.0 mg/kg/injection, schedule: Q01DX009 (ip), vehicle: gum acacia
  T/C: 92 % of control
dose: 200.0 mg/kg/injection, schedule: Q01DX009 (ip), vehicle: gum acacia
  T/C: 87 % of control
dose: 400.0 mg/kg/injection, schedule: Q01DX009 (ip), vehicle: gum acacia
  T/C: 86 % of control

## COCP(=O)(O)O
dose: 100.0 mg/kg/injection, schedule: Q04DX002 (ip), vehicle: saline
  T/C: 96 % of control
dose: 200.0 mg/kg/injection, schedule: Q04DX002 (ip), vehicle: saline
  T/C: 100 % of control

## COc1cc(C=Nc2cc(Cl)cc(Cl)c2)ccc1N(CCCl)CCCl
dose: 10.5 mg/kg/injection, schedule: Q01DX015 (ip), vehicle: carboxymethylcellulose (CMC)
  T/C: 114 % of control and 116 % of control
dose: 18.0 mg/kg/injection, schedule: Q01DX015 (ip), vehicle: carboxymethylcellulose (CMC)
  T/C: 113 % of control and 117 % of control
dose: 30.0 mg/kg/injection, schedule: Q01DX015 (ip), vehicle: carboxymethylcellulose (CMC)
  T/C: 123 % of control
dose: 50.0 mg/kg/injection, schedule: Q01DX001 (ip), vehicle: carboxymethylcellulose (CMC)
  T/C: 123 % of control
dose: 50.0 mg/kg/injection, schedule: Q01DX001 (ip), vehicle: other
  T/C: 105 % of control
dose: 50.0 mg/kg/injection, schedule: Q01DX015 (ip), vehicle: carboxymethylcellulose (CMC)
  T/C: 122 % of control
dose: 100.0 mg/kg/injection, schedule: Q01DX001 (ip), vehicle: carboxymethylcellulose (CMC)
  T/C: 157 % of control
[10]
  T/C: 118 % of control
dose: 150.0 mg/kg/injection, schedule: Q01DX001 (ip), vehicle: carboxymethylcellulose (CMC)
  T/C: 116 % of control
dose: 200.0 mg/kg/injection, schedule: Q01DX001 (ip), vehicle: carboxymethylcellulose (CMC)
  T/C: 123 % of control
[11]
  T/C: 123 % of control
[12]
  T/C: 111 % of control
dose: 800.0 mg/kg/injection, schedule: Q01DX001 (ip), vehicle: other
  T/C: 120 % of control

## CCOC(=O)C1(C(C)C)OC2(O)C3CCCN3C(=O)C(C(C)C)N2C1=O (centres undefined)
dose: 3.12 mg/kg/injection, schedule: Q03HX024 (ip), vehicle: Klucel (hydroxypropylcellulose) (HPC)
  T/C: 98 % of control
dose: 6.25 mg/kg/injection, schedule: Q03HX024 (ip), vehicle: Klucel (hydroxypropylcellulose) (HPC)
  T/C: 97 % of control
dose: 8.25 mg/kg/injection, schedule: Q01DX009 (ip), vehicle: Klucel (hydroxypropylcellulose) (HPC)
  T/C: 97 % of control
dose: 12.5 mg/kg/injection, schedule: Q01DX009 (ip), vehicle: Klucel (hydroxypropylcellulose) (HPC)
  T/C: 98 % of control
dose: 12.5 mg/kg/injection, schedule: Q03HX024 (ip), vehicle: Klucel (hydroxypropylcellulose) (HPC)
  T/C: 98 % of control
dose: 16.5 mg/kg/injection, schedule: Q01DX009 (ip), vehicle: Klucel (hydroxypropylcellulose) (HPC)
  T/C: 99 % of control
dose: 25.0 mg/kg/injection, schedule: Q01DX001 (ip), vehicle: Klucel (hydroxypropylcellulose) (HPC)
  T/C: 95 % of control
dose: 25.0 mg/kg/injection, schedule: Q01DX009 (ip), vehicle: Klucel (hydroxypropylcellulose) (HPC)
  T/C: 109 % of control
dose: 25.0 mg/kg/injection, schedule: Q03HX024 (ip), vehicle: Klucel (hydroxypropylcellulose) (HPC)
  T/C: 100 % of control
dose: 25.0 mg/kg/injection, schedule: Q04DX003 (ip), vehicle: alcohol
  T/C: 97 % of control
dose: 33.0 mg/kg/injection, schedule: Q01DX009 (ip), vehicle: Klucel (hydroxypropylcellulose) (HPC)
  T/C: 100 % of control
dose: 50.0 mg/kg/injection, schedule: Q01DX001 (ip), vehicle: Klucel (hydroxypropylcellulose) (HPC)
  T/C: 101 % of control
dose: 50.0 mg/kg/injection, schedule: Q01DX009 (ip), vehicle: Klucel (hydroxypropylcellulose) (HPC)
  T/C: 105 % of control
dose: 50.0 mg/kg/injection, schedule: Q03HX024 (ip), vehicle: Klucel (hydroxypropylcellulose) (HPC)
  T/C: 93 % of control
dose: 50.0 mg/kg/injection, schedule: Q04DX003 (ip), vehicle: alcohol
  T/C: 106 % of control
dose: 66.0 mg/kg/injection, schedule: Q01DX009 (ip), vehicle: Klucel (hydroxypropylcellulose) (HPC)
  T/C: 98 % of control
dose: 100.0 mg/kg/injection, schedule: Q01DX001 (ip), vehicle: Klucel (hydroxypropylcellulose) (HPC)
  T/C: 95 % of control
dose: 100.0 mg/kg/injection, schedule: Q01DX009 (ip), vehicle: Klucel (hydroxypropylcellulose) (HPC)
  T/C: 100 % of control
dose: 100.0 mg/kg/injection, schedule: Q04DX003 (ip), vehicle: alcohol
  T/C: 96 % of control
dose: 200.0 mg/kg/injection, schedule: Q01DX001 (ip), vehicle: Klucel (hydroxypropylcellulose) (HPC)
  T/C: 104 % of control
dose: 200.0 mg/kg/injection, schedule: Q01DX009 (ip), vehicle: Klucel (hydroxypropylcellulose) (HPC)
  T/C: 98 % of control
dose: 200.0 mg/kg/injection, schedule: Q04DX003 (ip), vehicle: alcohol
  T/C: 98 % of control

## O=C(O)C(Cc1ccccc1)NS(=O)(=O)Cc1ccccc1 (centres undefined)
[10]
  T/C: 100 % of control
dose: 100.0 mg/kg/injection, schedule: Q04DX003 (ip), vehicle: other
  T/C: 96 % of control
[11]
  T/C: 102 % of control
dose: 200.0 mg/kg/injection, schedule: Q04DX003 (ip), vehicle: other
  T/C: 93 % of control
[12]
  T/C: 100 % of control
dose: 400.0 mg/kg/injection, schedule: Q04DX003 (ip), vehicle: other
  T/C: 93 % of control

## CC(NC(=O)CNC(=O)CNC(=O)OCc1ccccc1)C(=O)O (centres undefined)
[7]
  T/C: 97 % of control
[8]
  T/C: 100 % of control
[9]
  T/C: 91 % of control

## CC1CN=C(c2ccc(N)cc2)S1 (centres undefined)
dose: 87.0 mg/kg/injection, schedule: Q04DX003 (ip), vehicle: Klucel (hydroxypropylcellulose) (HPC)
  T/C: 94 % of control
dose: 175.0 mg/kg/injection, schedule: Q04DX003 (ip), vehicle: Klucel (hydroxypropylcellulose) (HPC)
  T/C: 105 % of control

## Cc1cccc(N=Cc2ccc(Cl)cc2Cl)c1C
dose: 100.0 mg/kg/injection, schedule: Q01DX009 (ip), vehicle: alcohol
  T/C: 95 % of control
[4]
  T/C: 106 % of control
dose: 200.0 mg/kg/injection, schedule: Q01DX009 (ip), vehicle: alcohol
  T/C: 87 % of control
[5]
  T/C: 102 % of control
[6]
  T/C: 98 % of control

## Oc1cccc(NC(=S)Nc2ccccc2)c1
dose: 50.0 mg/kg/injection, schedule: Q01DX001 (ip), vehicle: saline
  T/C: 100 % of control
[1]
  T/C: 94 % of control
[2]
  T/C: 97 % of control
[3]
  T/C: 97 % of control
